{
  "source": "patent US20200022949A1",
  "about": "“COMPOSITION AND METHOD FOR THE ALLEVIATION OF EFFECTS OF ALCOHOL CONSUMPTION” (Detoxicated Inc., priority 2018, published 2020)",
  "origin": "cited, not measured here",
  "test_system": "non-alcoholic fatty liver disease",
  "settings": "patients with non-alcoholic fatty liver disease",
  "data": [
    {"compound": "O=C1c2c(O)cc(O)cc2O[C@H](c2cc(O)c(O)c(O)c2)[C@H]1O", "note": "[DHM, dihydromyricetin]", "values": [
      {"measurement": "liver health (levels of liver enzymes and inflammatory cytokines)", "value": "improve liver health"}
    ]}
  ]
}
